Assay results taken from paper PMC9916883, “Betaine- and L-Carnitine-Based Ionic Liquids as Solubilising and Stabilising Agents for the Formulation of Antimicrobial Eye Drops Containing Diacerein” (International Journal of Molecular Sciences, 2023).
Where “and” joins values, the source holds several entries; their conditions need not be identical. Equal values may be shown once. Read-outs that look alike come from different tables or passages of the source.

Experiments:
[1] = system: BALB/3T3 clone A31 fibroblast cells; assay: Cytotoxicity screening (WST-1); type: cell-based, murine; conditions: Mus musculus, 4 h incubation, read-out: IC50 of cell viability
Procedure: BALB/3T3 clone A31 fibroblast cells were grown in Dulbecco’s Modified Eagle Medium (DMEM), supplemented with 2 mM L-glutamine, 1% penicillin/streptomycin, and 10% bovine calf serum. Cells were grown in a CO2 incubator (Heracell 150i series) at 37 °C and 5% CO2, with cells sub-cultured at 80–90% confluency. The cell monolayers were rinsed with PBS and treated with trypsin–EDTA to detach the cells before their resuspension in fresh media. A subconfluent monolayer of BALB/3T3 clone A31 fibroblast cells was trypsinised, centrifuged at 1000 rpm for 5 min, resuspended in growth medium, and counted.
A cytotoxicity screening was carried out for both ILs (range […]), as well as DIA and Rhe (0.5–200 mg/mL). Briefly, BALB/3T3 clone A31 fibroblast cells were seeded in each well of 96-well plates at a seeding density of 6 × 10^3 cells/well for 24 h, until 60–70% confluence was reached. After 24 h, the medium was then removed from each well and replaced with DMEM containing the samples.
After 4 h of incubation, the media were removed, replaced with fresh medium containing 10% WST-1 reagent solution, and maintained for 4 h at 37° C with 5% CO2. Afterwards, formazan dye absorbance was quantified at 450 nm with the reference wavelength at 655 nm by using a multilabel reader (BioTek 800/TS, Thermo Scientific).

[2] = IL aggregates' size and zeta potential in aqueous solutions (DLS, Zetasizer); type: physicochemical
Procedure: The size distribution and zeta potential values of the ILs’ aggregates in aqueous solutions were evaluated by using a Zetasizer Nano ZS (Malvern) at 25 °C. The samples were prepared by adding an excess of either DIA or Rhe (5 mg/mL) to the aqueous IL solutions, incubating them for 30 min at 25 °C, and finally removing the excess drugs by centrifugation. […] In contrast, for PB solutions, the solutions were prepared in water, and […] of 100 mM pH 7 phosphate buffer was added per 1 mL of aqueous solution, directly in the cuvette, before the dynamic light scattering (DLS) analysis started. The concentrations of the solubilised drug were determined by UV–Vis analysis.

P. aeruginosa ATCC 27853 = assay: Killing assay; type: cell-based, Pseudomonas aeruginosa; conditions: 3 h incubation in 5% TSB, ILs 0.27 M
Procedure: (§1) To this end, the bacterial strains were grown in TSB until the exponential phase, and approximately 5 × 10^4 CFU/mL-contained in 10 μL-was added to 5 μL of TSB, 35 μL of water, and 50 μL of one of the following solutions corresponding to the eye drop compositions tested in vivo: Bet6 or Carn6 with 0.27 M or 0.34 M DIA, plain DIA (0.34 M) solution, or plain Bet6/plain Carn6, both at 0.27 M. All solutions were prepared in CB. The samples were incubated at 37 °C with shaking for 3 h. A sample containing 0.6% DMSO (corresponding to the highest concentration of DMSO tested) was used as a control. Following incubation, the samples were diluted 10-fold in LB and plated on tryptone soy agar (TSA, Oxoid) to determine the number of CFU. Bactericidal activity was defined as a reduction of at least 3 Log10 in the number of viable bacteria as compared to the inoculum.

[3] = system: type II porcine gastric mucin; assay: Mucoadhesion by microrheological method; type: physicochemical
Procedure: The measurements were performed using the Zetasizer Nano ZS instrument, as previously reported. The microrheological characterisation of the ILs was performed using type II porcine gastric mucin. Porcine gastric mucin was used because no ocular mucins were available, and as it has already been used for ocular models. Briefly, a 3 mg/mL suspension of type II porcine gastric mucin was prepared in Milli-Q water and filtered through 0.45 µm cellulose acetate filters. Next, 0.27 M and 0.20 M solutions of both ionic liquids in deionised water were prepared (corresponding to concentrations 15% higher and lower than the CAC, respectively). One millilitre of each sample to be tested had the following composition: 5 µL of tracer (latex polystyrene particles, diameter 500 nm, Beckman), 7.38 mg/mL of IL solution, 0.3 mg of mucin, and 8.1 mg/mL of 5% NaCl. As a reference, 1 mL of sample was prepared with the same composition but without the ILs. All measurements were carried out in triplicate.

S. aureus W4 = assay: Killing assay; type: cell-based, Staphylococcus aureus; conditions: 3 h incubation in 5% TSB, ILs 0.27 M
Procedure: as §1

[4] = Critical aggregation concentration (CAC) by surface tension; type: physicochemical; conditions: in water
Procedure: The CACs of the ILs were determined by measuring the surface tension (Tensiometer du Nouy, Force Tensiometer K6 from KRÜSS (GmbH)) of aqueous solutions with increasing IL concentrations. Milli-Q H2O was used as a reference, with γ equal to 71 ± 1.3 mN/m at 25 ± 2 °C (Dortmund databank reference, 71.5 ± 0.5 mN/m 24 ± 1.4 °C). Surface tension values were plotted vs. logarithms of the ILs’ concentrations, linear fits were applied to the data points, and CAC was determined as the intersection of the two linear fits relative to the initial surface tension depression and the further plateau.

[5] = IL 180 μg/mL, DIA + (saturation), CB pH5
[6] = IL 180 μg/mL, Rhe + (saturation), PB pH7
[7] = IL 200 μg/mL, DIA + (saturation), CB pH5
[8] = IL 200 μg/mL, DIA + (saturation), H2O pH4
[9] = IL 200 μg/mL, Rhe + (saturation), H2O pH4

CCCCCCOC(=O)C[N+](C)(C)C.[Br-] [Bet6, (2-hexyloxy-2-oxoethyl)-trimethylammonium bromide]
IC50 [1]: 7500 µg/mL
IC50 ([1]; murine fibroblasts): 26.8 mM
PDI ([2]; IL 90 μg/mL, no drug, H2O pH4): 0.01 ± 0.002
Ø (aggregates size) ([2]; IL 90 μg/mL, no drug, H2O pH4): 0.80 ± 0.03 nm
PDI ([2]; IL 105 μg/mL, no drug, H2O pH4): 0.01 ± 0.005
Ø (aggregates size) ([2]; IL 105 μg/mL, no drug, H2O pH4): 0.96 ±0.07 nm
PDI ([2]; IL 170 μg/mL, no drug, H2O pH4): 0.01 ± 0.005
Ø (aggregates size) ([2]; IL 170 μg/mL, no drug, H2O pH4): 1.96 ± 0.30 nm
PDI [2, 5]: 0.01 ± 0.005
Ø (aggregates size) [2, 5]: 1.73 ± 0.40 nm
ζ (zeta potential) [2, 5]: 2.82 ± 1.17 mV
PDI [2, 6]: 0.03 ± 0.005
Ø (aggregates size) [2, 6]: 1.71 ± 0.49 nm
ζ (zeta potential) [2, 6]: 5.77 ± 0.54 mV
PDI ([2]; IL 180 μg/mL, no drug, CB pH5): 0.01 ± 0.005
Ø (aggregates size) ([2]; IL 180 μg/mL, no drug, CB pH5): 1.76 ± 0.38 nm
ζ (zeta potential) ([2]; IL 180 μg/mL, no drug, CB pH5): 0.65 ± 0.53 mV
PDI ([2]; IL 180 μg/mL, no drug, PB pH7): 0.01 ± 0.005
Ø (aggregates size) ([2]; IL 180 μg/mL, no drug, PB pH7): 1.79 ± 0.41 nm
ζ (zeta potential) ([2]; IL 180 μg/mL, no drug, PB pH7): 8.93 ± 0.94 mV
PDI [2, 7]: 0.02 ± 0.005
Ø (aggregates size) [2, 7]: 2.01 ± 0.60 nm
ζ (zeta potential) [2, 7]: 0.16 ± 1.85 mV
PDI [2, 8]: 0.02 ± 0.005
Ø (aggregates size) [2, 8]: 1.69 ± 0.92 nm
ζ (zeta potential) [2, 8]: 9.53 ± 1.68 mV
PDI [2, 9]: 0.01 ±0.005
Ø (aggregates size) [2, 9]: 1.63 ± 0.21 nm
ζ (zeta potential) [2, 9]: 8.17 ± 0.94 mV
PDI ([2]; IL 200 μg/mL, no drug, CB pH5): 0.03 ± 0.005
Ø (aggregates size) ([2]; IL 200 μg/mL, no drug, CB pH5): 1.97 ± 0.44 nm
ζ (zeta potential) ([2]; IL 200 μg/mL, no drug, CB pH5): 2.62 ± 0.96 mV
PDI ([2]; IL 200 μg/mL, no drug, H2O pH4): 0.01 ± 0.005
Ø (aggregates size) ([2]; IL 200 μg/mL, no drug, H2O pH4): 1.81 ± 0.41 nm
ζ (zeta potential) ([2]; IL 200 μg/mL, no drug, H2O pH4): 13.70 ± 1.60 mV
bactericidal effect (P. aeruginosa ATCC 27853; DIA 0.34 M): strong bactericidal effect
CFU after treatment (limit of detection) (P. aeruginosa ATCC 27853; DIA 0.34 M if loaded): < 100 CFU/mL
Relative Viscosity ([3]; mucin with IL at 0.20 M (lower than CAC)): 0.79 ± 0.01 cP
Relative Viscosity ([3]; mucin with IL at 0.27 M (higher than CAC)): 1.32 ± 0.13 cP
bactericidal effect (S. aureus W4; DIA 0.34 M): strong bactericidal effect
CFU after treatment (limit of detection) (S. aureus W4; DIA 0.34 M if loaded): < 100 CFU/mL
surface tension at the CAC (σ) [4]: 34.2 mN/m
critical aggregation concentration (CAC) ([4]; via surface tension): 0.227 M and 0.227 ± 0.016 M
